Data as given in paper PMC7059629 (Letters in drug design & discovery, 2019).

Assays:
Format in all cases: cell-based
rat mGlu2/4 heterodimer = rat mGlu2/4 heterodimer (Rattus norvegicus, UniProt P31421+P31423); assay: mGlu2/4 heterodimer PAM thallium flux assay; settings: for mGlu2/4 % Glu Max: ±SEM
homodimeric mGlu4 = homodimeric mGlu4 (Homo sapiens, UniProt Q14833); assay: mGlu4 Gqi5 calcium assay
rat mGlu2 = rat mGlu2 (Rattus norvegicus, UniProt P31421); assay: mGlu2 homodimer thallium flux assay; settings: rat mGlu2-HEK293 cells, EC20 glutamate
[1] = rat mGlu2/4-HEK293 cells, thallium flux, EC20 glutamate

Row | EC50 (rat mGlu2/4 heterodimer) | mGlu2/4 % Glu Max (rat mGlu2/4 heterodimer; [1]) | EC50 (homodimeric mGlu4) | SMILES | mGlu2/4 pEC50 (±SEM) (rat mGlu2/4 heterodimer; [1]) | mGlu2 pEC50 (±SEM) (rat mGlu2) | mGlu2 % Glu Max (rat mGlu2; ±SEM)
1 | 3.39 µM | 52.4±3.7 % Glu Max | > 30 µM | Cc1nc(-c2ccc(OCC(C)C)c(C#N)c2)sc1C(=O)O [compound 9, febuxostat] |  |  | 
2 |  | 89 % Glu Max |  | NC(=O)[C@@H]1CCCC[C@@H]1C(=O)Nc1ccc(Cl)c(Cl)c1 [compound 5, Lu AF21934] |  |  | 

Row | SMILES | EC50 (rat mGlu2/4 heterodimer) | mGlu2/4 % Glu Max (rat mGlu2/4 heterodimer; [1]) | EC50 (homodimeric mGlu4) | mGlu2/4 pEC50 (±SEM) (rat mGlu2/4 heterodimer; [1]) | mGlu2 pEC50 (±SEM) (rat mGlu2) | mGlu2 % Glu Max (rat mGlu2; ±SEM)
3 | Cc1nc(-c2ccc(OCC(C)C)c(C#N)c2)sc1C(=O)NC1CCOCC1 [11a, 2-(3-cyano-4-iosbutoxyphenyl)-4-methyl-N-(tetrahydro-2H-pyran-4-yl)thiazole-5-carboxamide] |  | 35±2 % Glu Max |  | 5.28±0.03 | 5.32±0.02 | 73±30 % Glu Max
